The source of these data is PMC5790502, “The anti-rheumatic drug, leflunomide, synergizes with MEK inhibition to suppress melanoma growth” (Oncotarget, 2017).

Type in all cases: cell-based, human
Assay [1] relates to A375 melanoma cells. Description: Mitochondrial membrane potential assay (JC-1). To be noted: rising concentrations of leflunomide (25, 50, 100 μM), 72 hours. The procedure:
www.impactjournals.com/oncotarget/ Oncotarget, Supplementary Materials 2017 The anti-rheumatic drug, leflunomide, synergizes with MEK inhibition to suppress melanoma growth
Mitochondrial membrane potential [ΔΨM] assay REFERENCES
A375 melanoma cells were seeded in 12 well plates at 1. Tap WD, Gong KW, Dering J, Tseng Y, Ginther C, Pauletti a density of 10,000 cells per 1 ml of medium per well. After G, Glaspy JA, Essner R, Bollag G, Hirth P, Zhang C, Slamon 24 hours, the cells were treated with vehicle or leflunomide. DJ. […] Haluska FG, Tsao H, Wu H, Haluska FS, Lazar A, Goel V. of fresh PBS before being analyzed on the BD AccuriTM C6 Genetic alterations in signaling pathways in melanoma. […] Samples were exposed to 488 nm excitation, Cancer Res. 2006; 12:2301s–2307s. with JC-1 green monomer fluorescence detected at 533/30 3. von Euw E, Atefi M, Attar N, Chu C, Zachariah S, Burgess BL, nm in the FL1 channel and JC-1 red aggregates fluorescence Mok S, Ng C, Wong DJ, Chmielowski B, Lichter DI, Koya RC, detected at 585/20 nm in the FL2 channel. […] Data selective MEK inhibitor TAK733 against cutaneous and uveal was analyzed using the BD AccuriTM C6 Software. melanoma cell lines. […]
BD AccuriTM C6 flow cytometer (with green fluorescence 6. Atefi M, Titz B, Tsoi J, Avramis E, Le A, Ng C, Lomova A, Lassen detected in the FL1 channel). […]

Assay [2] has as its system A375 melanoma cells. Description: Cell cycle analysis (PI staining, flow cytometry). To be noted: 72 hours. The procedure: Cell cycle analysis was carried out as previously detailed. In brief, A375 melanoma cells were seeded in 24-well plates at a density of 4,600 cells per well. After 24 hours, the cells were treated with vehicle, 25, 50 and 100 µM of Leflunomide. After 72 hours, the cells were trypsinised and pelleted along with the culture medium. Cells were washed in PBS and fixed in ice-cold absolute ethanol. Cells were then stained with 200 µl PI/RNase A solution (Cell Signalling Technology). Cells were analyzed using a BD Accuri™ C6 flow cytometer (BD Biosciences) and the data was analyzed using the BD Accuri™ C6 Software and FlowJo (FLOWJO, LLC).

Assay [3] has as its system A375 melanoma cells. Description: Annexin V apoptosis assay. To be noted: 72 hours. The procedure:
Apoptosis was assessed using an Annexin V-FITC Apoptosis detection kit FITC (eBioscience), according to the manufacturer’s instructions. Briefly, cells were seeded in 24-well plates at a density of 4,600 cells per well. After 24 hours, the cells were treated with vehicle or leflunomide (at concentrations of 25, 50 and 100 µM). After 72 hours cells were trypsinised, washed in PBS and treated with fluorochrome-conjugated Annexin V and propidium iodide as indicated in the protocol. Cells were analyzed on the BD Accuri™ C6 flow cytometer and the data analyzed using the instrument software.

Assay [4] concerns A375 melanoma cells. Kind of assay: BrdU proliferation assay. To be noted: increasing concentrations of leflunomide, 72 hours. The procedure: A375 melanoma cells were seeded in 12-well plates at a density of 10,000 cells and grown on gelatin-coated coverslips. After 24 hours leflunomide was added to cells at 12.5, 25 or 50 μM (or a vehicle control) for 72 hours. Cells were pulsed for 2 hours with BrdU (Sigma-Aldrich) at a final working concentration of 10 μM. Cells were permeabilised in 2N-HCL + 0.5% Triton X-100. Primary BrdU antibody diluted 1:100 in 1% goat serum was applied and incubated overnight at 4°C followed by Alexa Fluor-488 anti-mouse secondary antibody Cells were counterstained with DAPI. Cells were mounted onto slides using hydromount and examined under a Zeiss AxioPlan 2ie widefield microscope with an AxioCam HRm CCD camera. Images were analyzed using Image J software.

Consider `Cc1oncc1C(=O)Nc1ccc(C(F)(F)F)cc1` [Leflunomide, leflunomide], for which the “mitochondrial membrane potential (JC-1, FL-1 channel)” value in assay [1] is listed as “depolarized”. In addition, in assay [2] (25 μM leflunomide), the “cells in G1 (G0-G1 phase)” value was determined as 46.56%, the “cells in sub-G1” value turned out to be 5.36% and the “reduction of percentage of cells in G2-M compared to the DMSO control” value turned out to be 50%. Besides, in assay [2] (50 μM leflunomide), the “cells in G1 (G0-G1 phase)” value is given as 55.05%, the “cells in S-phase” value was 30.41% and the “cells in sub-G1” value amounted to 9.12%. Moreover, in assay [2] (100 μM leflunomide), the “cells in G1 (G0-G1 phase)” value worked out at 73.56%, the “cells in S-phase” value came out at 11.60% and the “cells in sub-G1” value was determined as 11.84%. In assay [3] (50 μM leflunomide), the “early apoptotic cells (quadrant Q3)” value worked out at 49.3% and the “late apoptotic/necrotic cells (quadrant Q2)” value turned out to be 44.2%. Moreover, in assay [3] (100 μM leflunomide), the “early apoptotic cells (quadrant Q3)” value stood at 28.5% and the “late apoptotic/necrotic cells (quadrant Q2)” value was 19.1%. Moreover, the viability at 25 µM in assay [3] (Homo sapiens, A-375, 25μM leflunomide, read-out: viable cells (quadrant Q4)) was 68%. Further, in assay [3] (Homo sapiens, A-375, 50μM leflunomide, read-out: viable cells (quadrant Q4)), the viability at 50 µM is 5.91%. In assay [3] (Homo sapiens, A-375, 100μM leflunomide, read-out: viable cells (quadrant Q4)), the viability at 100 µM worked out at 51.4%. In addition, the “number of BrdU positive (proliferating) cells” value in assay [4] is reported as “dose-dependent decrease”.
